In EPA's ToxRefDB 2:

Tests used:
rat [1] = conditions: Multigenerational reproductive toxicity study, sprague dawley, Oral, Gavage/Intubation, dose end: 2 generation
rat [2] = conditions: Prenatal developmental toxicity study, fischer, Oral, Gavage/Intubation, dose end: 15 GD
rat [3] = conditions: Multigenerational reproductive toxicity study, other, Oral, Feed, dose end: 2 generation
mouse = conditions: Multigenerational reproductive toxicity study, cd1, Oral, Feed, dose end: 1 generation
rat [4] = conditions: Peri- and post-natal toxicity study (Segment III), sprague dawley, Oral, Gavage/Intubation, dose end: 40 PND
rat [5] = conditions: Multigenerational reproductive toxicity study, sprague dawley, Oral, Feed, dose end: 2 generation
rat [6] = conditions: Peri- and post-natal toxicity study (Segment III), sprague dawley, Oral, Gavage/Intubation, dose end: 43 PND
rabbit [7] = conditions: Prenatal developmental toxicity study, new zealand white, Oral, Gavage/Intubation, dose end: 19 GD
rabbit [8] = conditions: Prenatal developmental toxicity study, dutch, Oral, Gavage/Intubation, dose end: 19 GD
rat [9] = conditions: Multigenerational reproductive toxicity study, sprague dawley, Oral, Feed, dose end: 2 generation; remark: listed apart in the source
[10] = group: offspring, systemic / organ weight / thymus / absolute
[11] = group: offspring, systemic / organ weight / thymus / absolute + systemic / organ weight / thymus / relative to body weight
[12] = group: parental, systemic / organ weight / liver / absolute + systemic / organ weight / liver / relative to body weight
[13] = group: parental, systemic / organ weight / liver / absolute + systemic / organ weight / liver / relative to body weight + systemic / in life observation / …
[14] = group: developmental, systemic / in life observation / body weight / fetal weight
[15] = group: maternal, systemic / in life observation / body weight / body weight + systemic / in life observation / body weight / body weight gain + systemic / in…
[16] = group: maternal, systemic / in life observation / body weight / body weight gain + systemic / in life observation / food consumption / food consumption
[17] = group: offspring, developmental / offspring survival late / [other] / [other] + systemic / in life observation / body weight / offspring (pup) weight
[18] = group: parental, systemic / in life observation / body weight / body weight + systemic / in life observation / food consumption / food consumption
[19] = group: reproductive, reproductive / offspring survival early / litter size / litter size + reproductive / offspring survival early / live fetuses / live fetuses
[20] = group: parental, systemic / in life observation / body weight / body weight + systemic / organ weight / kidney / nos + systemic / organ weight / liver / nos…
[21] = group: reproductive, reproductive / reproductive performance / fertility / fertility + reproductive / offspring survival early / live fetuses / live fetuses
[22] = group: reproductive, reproductive / reproductive performance / fertility / fertility + reproductive / offspring survival early / live fetuses / live fetuses + …
[23] = group: maternal, reproductive / reproductive performance / estrous cycle / corpora lutea
[24] = group: parental, systemic / pathology microscopic / ovary / follicle count + systemic / pathology microscopic / uterus / thickened
[25] = group: offspring, systemic / in life observation / body weight / offspring (pup) weight
[26] = group: parental, systemic / organ weight / ovary / nos
[27] = group: reproductive, reproductive / reproductive performance / gestational length / gestational length
[28] = group: developmental, developmental / developmental landmark / vaginal opening / vaginal opening
[29] = group: maternal, reproductive / reproductive performance / estrous cycle / [other]
[30] = group: maternal, reproductive / reproductive performance / estrous cycle / [other] + reproductive / reproductive performance / estrous cycle / abnormal + …
[31] = group: parental, systemic / organ weight / liver / absolute + systemic / organ weight / ovary / absolute + systemic / organ weight / pituitary gland / …
[32] = group: developmental, developmental / developmental malformation / bone / misshapen + developmental / developmental malformation / gallbladder / hypoplasia + …
[33] = group: cholinesterase, cholinesterase / cholinesterase / cholinesterase / brain cholinesterase (che) + cholinesterase / cholinesterase / cholinesterase / …
[34] = group: developmental, developmental / developmental malformation / bone / incomplete ossification
[35] = group: maternal, reproductive / reproductive performance / resorptions / resorptions + systemic / in life observation / clinical signs / abnormal feces
[36] = group: parental, systemic / in life observation / body weight / body weight + systemic / organ weight / ovary / nos
[37] = group: parental, systemic / in life observation / body weight / body weight + systemic / organ weight / ovary / nos + systemic / pathology microscopic / …
[38] = group: reproductive, reproductive / reproductive performance / fertility / fertility
[39] = group: reproductive, reproductive / reproductive performance / fertility / fertility + reproductive / reproductive performance / estrous cycle / corpora lutea

`CCCCc1ccccc1` [Butylbenzene] showed an NEL (rat [1]; [10]) of 100 mg/kg/day, an NOAEL (rat [1]; [10]) of 100 mg/kg/day and an LEL (rat [1]; [11]) of 300 mg/kg/day. It also gave an LOAEL (rat [1]; [11]) of 300 mg/kg/day, an LEL (rat [1]; [12]) of 30 mg/kg/day and an NEL (rat [1]; [12]) of under 30 mg/kg/day. It also gave an LOAEL (rat [1]; [13]) of 100 mg/kg/day and an NOAEL (rat [1]; [13]) of 30 mg/kg/day.

For `Cl/C=C\C[N+]12CN3CN(CN(C3)C1)C2.[Cl-]` [Chloroallyl methenamine chloride], the LEL (rat [2]; [14]) was 75 mg/kg/day, the LOAEL (rat [2]; [14]) was over 75 mg/kg/day and the NEL (rat [2]; [14]) was 25 mg/kg/day. For the same compound, the NOAEL (rat [2]; [14]) was at least 75 mg/kg/day, the LOAEL (rat [2]; [15]) was 75 mg/kg/day and the NOAEL (rat [2]; [15]) was 25 mg/kg/day. The LEL (rat [2]; [16]) was 25 mg/kg/day, the NEL (rat [2]; [16]) was under 25 mg/kg/day and the LEL (rat [3]; [17]) was 14.8 mg/kg/day. It also gave an LOAEL (rat [3]; [17]) of over 14.8 mg/kg/day, an NEL (rat [3]; [17]) of 5 mg/kg/day and an NOAEL (rat [3]; [17]) of at least 14.8 mg/kg/day. For the same compound, the LEL (rat [3]; [18]) was 4.57 mg/kg/day, the LOAEL (rat [3]; [18]) was over 13.4 mg/kg/day and the NEL (rat [3]; [18]) was 1.53 mg/kg/day. The NOAEL (rat [3]; [18]) was at least 13.4 mg/kg/day, the NEL (rat [3]; group: reproductive, reproductive / offspring survival early / litter size / litter size) was 5 mg/kg/day and the LEL (rat [3]; [19]) was 14.8 mg/kg/day. It also gave an LOAEL (rat [3]; [19]) of over 14.8 mg/kg/day and an NOAEL (rat [3]; [19]) of at least 14.8 mg/kg/day.

`CCCCCOC(=O)c1ccccc1C(=O)OCCCCC` [Dipentyl phthalate] showed an NEL (mouse; group: parental, systemic / in life observation / body weight / body weight + systemic / organ weight / kidney / nos + systemic / organ weight / liver / nos) of 2.16 mg/kg/day, an LEL (mouse; [20]) of 4.79 mg/kg/day and an LOAEL (mouse; [20]) of over 4.79 mg/kg/day. It also gave an NOAEL (mouse; [20]) of at least 4.79 mg/kg/day, an LEL (mouse; [21]) of 0.76 mg/kg/day and an NEL (mouse; [21]) of under 0.76 mg/kg/day. The LOAEL (mouse; [22]) was over 4.79 mg/kg/day and the NOAEL (mouse; [22]) was at least 4.79 mg/kg/day.

For `CC(C)COC(=O)c1ccc(O)cc1` [Isobutylparaben], the LEL (rat [4]; [23]) was 62.5 mg/kg/day, the LOAEL (rat [4]; [23]) was over 1000 mg/kg/day and the NEL (rat [4]; [23]) was under 62.5 mg/kg/day. For the same compound, the NOAEL (rat [4]; [23]) was at least 1000 mg/kg/day, the LEL (rat [4]; [24]) was 62.5 mg/kg/day and the LOAEL (rat [4]; [24]) was over 1000 mg/kg/day. The NEL (rat [4]; [24]) was under 62.5 mg/kg/day and the NOAEL (rat [4]; [24]) was at least 1000 mg/kg/day.

`CC1(C)CCC(Cc2ccc(Cl)cc2)C1(O)Cn1cncn1` (stereo not given) [Metconazole] gave an LEL (rat [5]; [25]) of 32 mg/kg/day, an LOAEL (rat [5]; [25]) of 32 mg/kg/day and an NEL (rat [5]; [25]) of 8 mg/kg/day. For the same compound, the NOAEL (rat [5]; [25]) was 8 mg/kg/day, the LEL (rat [5]; [26]) was 32 mg/kg/day and the LOAEL (rat [5]; [26]) was 32 mg/kg/day. It also gave an NEL (rat [5]; [26]) of 8 mg/kg/day, an NOAEL (rat [5]; [26]) of 8 mg/kg/day and an LEL (rat [5]; [27]) of 32 mg/kg/day. It also gave an LOAEL (rat [5]; [27]) of over 32 mg/kg/day, an NEL (rat [5]; [27]) of 8 mg/kg/day and an NOAEL (rat [5]; [27]) of at least 32 mg/kg/day.

In the case of `COc1ccc(C(c2ccc(OC)cc2)C(Cl)(Cl)Cl)cc1` [Methoxychlor], the LEL (rat [6]; [28]) is reported as 12.5 mg/kg/day, the LOAEL (rat [6]; [28]) is reported as over 50 mg/kg/day and the NEL (rat [6]; [28]) is reported as under 12.5 mg/kg/day. The NOAEL (rat [6]; [28]) was at least 50 mg/kg/day, the LEL (rat [6]; [29]) was 12.5 mg/kg/day and the NEL (rat [6]; [29]) was under 12.5 mg/kg/day. The LOAEL (rat [6]; [30]) was over 50 mg/kg/day, the NOAEL (rat [6]; [30]) was at least 50 mg/kg/day and the LEL (rat [6]; [31]) was 50 mg/kg/day. The LOAEL (rat [6]; [31]) was over 50 mg/kg/day, the NEL (rat [6]; [31]) was 25 mg/kg/day and the NOAEL (rat [6]; [31]) was at least 50 mg/kg/day.

`CC1=C(C(=O)Nc2ccccc2)S(=O)(=O)CCO1` [Oxycarboxin] gave an LEL (rabbit [7]; [32]) of 750 mg/kg/day, an LOAEL (rabbit [7]; [32]) of 750 mg/kg/day and an NEL (rabbit [7]; [32]) of 150 mg/kg/day. The NOAEL (rabbit [7]; [32]) was 150 mg/kg/day, the LEL (rabbit [7]; [15]) was 750 mg/kg/day and the LOAEL (rabbit [7]; [15]) was 750 mg/kg/day. For the same compound, the NEL (rabbit [7]; [15]) was 150 mg/kg/day and the NOAEL (rabbit [7]; [15]) was 150 mg/kg/day.

`CCS(=O)CCSP(=O)(OC)OC` (stereo not given) [Oxydemeton-methyl] gave an LEL (rabbit [8]; [33]) of 1.6 mg/kg/day, an LOAEL (rabbit [8]; [33]) of 1.6 mg/kg/day and an NEL (rabbit [8]; [33]) of 0.4 mg/kg/day. For the same compound, the NOAEL (rabbit [8]; [33]) was 0.4 mg/kg/day, the LEL (rabbit [8]; [34]) was 0.1 mg/kg/day and the LOAEL (rabbit [8]; [34]) was 0.1 mg/kg/day. It also gave an NEL (rabbit [8]; [34]) of under 0.1 mg/kg/day, an NOAEL (rabbit [8]; [34]) of under 0.1 mg/kg/day and an LOAEL (rabbit [8]; [35]) of over 1.6 mg/kg/day. The NEL (rabbit [8]; [35]) was 0.1 mg/kg/day, the NOAEL (rabbit [8]; [35]) was at least 1.6 mg/kg/day and the LEL (rabbit [8]; group: maternal, systemic / in life observation / clinical signs / abnormal feces) was 0.4 mg/kg/day. It also gave an LEL (rat [9]; [17]) of 2.1 mg/kg/day, an LOAEL (rat [9]; [17]) of 2.1 mg/kg/day and an NEL (rat [9]; [17]) of 0.38 mg/kg/day. For the same compound, the NOAEL (rat [9]; [17]) was 0.38 mg/kg/day, the NEL (rat [9]; [36]) was 0.38 mg/kg/day and the NOAEL (rat [9]; [36]) was 0.38 mg/kg/day. The LEL (rat [9]; [37]) was 2.1 mg/kg/day, the LOAEL (rat [9]; [37]) was 2.1 mg/kg/day and the NEL (rat [9]; [38]) was 0.38 mg/kg/day. For the same compound, the NOAEL (rat [9]; [38]) was 0.38 mg/kg/day, the LEL (rat [9]; [39]) was 2.1 mg/kg/day and the LOAEL (rat [9]; [39]) was 2.1 mg/kg/day.
